Measured values published in US20240246918A1, “COMPOUNDS AND COMPOSITIONS AS EIF4E INHIBITORS AND THE USES THEREOF” (Ribometrix, Inc., priority 2022, published 2024).
Where two headings read alike, the source gives them in different places.

Assays:
[1] = biological target: T1, human eIF4E protein (Homo sapiens, UniProt P06730); assay: Biochemical competitive binding assay (TR-FRET competition, EDA-m7GDP-ATTO-647N probe); details: read-out: hEIF4E TR-FRET IC50
T1 construct: purchased Novus NBP-45314
Outline: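 IC50 values come from 4-parameter fits of the normalized 665/620 nm TR-FRET ratio. Compound was first incubated 15 min with 4 nM recombinant His-eIF4E bound to 2.5 nM Eu-anti-His antibody, then 15 min with 5 nM m7GDP-ATTO-647N tracer, in pH 7.5 HEPES buffer with 100 mM KCl, Tween-20 and BSA.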

[2] = test system: cap-dependent translation in Flp-In-293 reporter cells; assay: Cellular cap-dependent translation inhibition assay (dual luciferase assay, DLA; Fluc/Rluc ratio, 24 hours); assay type: cell-based
[3] = test system: COLO 205 colorectal tumor cells; assay: Tumor cell viability inhibition assay (CellTiter-Glo 2.0, 72 hours); assay type: cell-based; details: COLO 205 cell viability
Outline: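 IC50 derived by 4-parameter fitting after normalizing luminescence to DMSO and max-inhibition wells. Compounds tested as 11 concentrations in 4-fold steps on COLO 205 cells seeded at 1500 per well in RPMI-1640/10% FBS; ATP content measured with CellTiter-Glo 2.0 after 72 h.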

[4] = Homo sapiens, Flp-In-293, 24 h, dual luciferase assay, Flp-In-293 reporter cells, 24 hours, Fluc/Rluc ratio, read-out: DLA 205 IC50
[5] = dual luciferase assay, Flp-In-293 reporter cells, 24 hours, Fluc/Rluc ratio, read-out: DLA 205 IC50
[6] = Homo sapiens, Flp-In-293, 24 h, read-out: DLA 205 IC50, dual luciferase assay, Flp-In-293 reporter cells, 24 hours, Fluc/Rluc ratio

T1 sequence (P06730 whole entry): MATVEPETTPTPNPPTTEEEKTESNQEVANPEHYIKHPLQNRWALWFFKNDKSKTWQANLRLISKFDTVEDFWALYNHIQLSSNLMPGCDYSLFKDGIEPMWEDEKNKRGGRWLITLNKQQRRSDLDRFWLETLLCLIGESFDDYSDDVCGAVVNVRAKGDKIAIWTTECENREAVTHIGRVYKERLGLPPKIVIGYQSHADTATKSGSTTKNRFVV

Row | SMILES | IC50 [1] [nM] | IC50 [2, 4] [nM] | IC50 ([3]; Homo sapiens, COLO 205, 72 h) [nM] | IC50 [2, 5] [nM] | IC50 [3] [nM] | IC50 [2, 6] [nM] | IC50 ([3]; Homo sapiens) [nM]
1 | Cc1cc(-c2cc(Cl)ccc2OCCn2c(C)nc3c(c2=O)CC(N(C)C2CCC(F)(F)C2)CC3)c2scc(C(=O)O)c2n1 (single isomer, unassigned) [Compound 337] | < 100 | < 1000 | < 5000 | – | – | – | –
2 | Cc1cc(-c2cc(Cl)ccc2OCCn2c(C)nc3c(c2=O)CC(N(C)C2CCC(F)(F)C2)CC3)c2scc(C(=O)O)c2n1 (single isomer, unassigned) [Compound 338] | < 100 | – | – | < 1000 | < 5000 | – | –
3 | Cc1cc(-c2cc(Cl)ccc2OCCn2c(C)nc3c(c2=O)CC(N2CC(F)(F)C2)CC3)c2sccc2n1 (single isomer, unassigned) [Compound 340] | 500 to 5000 | > 5000 | > 20000 | – | – | – | –
4 | Cc1cc(-c2cc(Cl)ccc2OCCn2c(C)nc3c(c2=O)CC(N2CC(F)(F)C2)CC3)c2sccc2n1 (single isomer, unassigned) [Compound 341] | 500 to 5000 | – | – | > 5000 | > 20000 | – | –
5 | Cc1cc(-c2cc(Cl)ccc2OCCn2c(C)nc3c(c2=O)CC(N2CC(F)C2)CC3)c2scc(C(=O)NS(C)(=O)=O)c2n1 (single isomer, unassigned) [Compound 342] | < 100 | < 1000 | < 5000 | – | – | – | –
6 | Cc1cc(-c2cc(Cl)ccc2OCCn2c(C)nc3c(c2=O)CC(N2CC(F)C2)CC3)c2scc(C(=O)NS(C)(=O)=O)c2n1 (single isomer, unassigned) [Compound 343] | < 100 | – | – | < 1000 | < 5000 | – | –
7 | Cc1cc(-c2cc(Cl)ccc2OCCn2c(C)nc3c(c2=O)CC(N(C)CC2(C)COC2)CC3)c2scc(C(=O)O)c2n1 (single isomer, unassigned) [Compound 344] | < 100 | < 1000 | < 5000 | – | – | – | –
8 | Cc1cc(-c2cc(Cl)ccc2OCCn2c(C)nc3c(c2=O)CC(N(C)CC2(C)COC2)CC3)c2scc(C(=O)O)c2n1 (single isomer, unassigned) [Compound 345] | < 100 | – | – | < 1000 | 5000 to 20000 | – | –
9 | Cc1cc(-c2cc(Cl)ccc2OCCn2c(C)nc3c(c2=O)C[C@H](N2CC[C@H](F)C2)CC3)c2scc(C(=O)NS(C)(=O)=O)c2n1 (single isomer, unassigned) [Compound 346] | < 100 | < 1000 | < 5000 | – | – | – | –
10 | Cc1cc(-c2cc(Cl)ccc2OCCn2c(C)nc3c(c2=O)C[C@@H](N2CC[C@H](F)C2)CC3)c2scc(C(=O)NS(C)(=O)=O)c2n1 (single isomer, unassigned) [Compound 347] | < 100 | < 1000 | < 5000 | – | – | – | –
11 | Cc1nc2c(c(=O)n1CC#Cc1ccc(Cl)cc1-c1ccnc3c(C(=O)NS(C)(=O)=O)csc13)C[C@H](N1CC[C@@H](F)C1)CC2 (single isomer, unassigned) [Compound 348] | < 100 | < 1000 | < 5000 | – | – | – | –
12 | Cc1nc2c(c(=O)n1CC#Cc1ccc(Cl)cc1-c1ccnc3c(C(=O)NS(C)(=O)=O)csc13)C[C@@H](N1CC[C@@H](F)C1)CC2 (single isomer, unassigned) [Compound 349] | < 100 | < 1000 | < 5000 | – | – | – | –
13 | Cc1cc(-c2cc(Cl)ccc2OCCn2c(C)nc3c(c2=O)CC(N(C)Cc2ccncc2)CC3)c2scc(C(=O)O)c2n1 (single isomer, unassigned) [Compound 354] | < 100 | – | – | < 1000 | < 5000 | – | –
14 | Cc1cc(-c2cc(Cl)ccc2OCCn2c(C)nc3c(c2=O)CC(N2CC4COCC4C2)CC3)c2scc(C(=O)NS(C)(=O)=O)c2n1 (single isomer, unassigned) [Compound 359] | < 100 | < 1000 | < 5000 | – | – | – | –
15 | CNC1CCc2nc(C)n(CCOc3ccc(Cl)cc3-c3cccc(C(=O)O)c3)c(=O)c2C1 (stereo not drawn) [Compound 2] | < 100 | – | – | – | – | > 5000 | < 5000
16 | Cc1cc(-c2cc(Cl)ccc2OCCn2c(C)nc3c(c2=O)CC(N2CCCC2)CC3)c2scc(C(=O)O)c2n1 (stereo not drawn) [Compound 4] | < 100 | – | – | – | – | < 1000 | 5000 to 20000
17 | COC1CCc2nc(C)n(CCOc3ccc(Cl)cc3-c3cc(C)nc4c(C(=O)O)csc34)c(=O)c2C1 (stereo not drawn) [Compound 7] | 100 to 500 | – | – | – | – | 1000 to 5000 | 5000 to 20000
18 | Cc1cc(-c2cc(Cl)ccc2OCCn2c(C)nc3c(c2=O)CC(N2CCC2)CC3)c2scc(C(=O)O)c2n1 (stereo not drawn) [Compound 8] | < 100 | – | – | – | – | < 1000 | 5000 to 20000
19 | Cc1cc(-c2cc(Cl)ccc2OCCn2c(C)nc3c(c2=O)CC(N2CCOCC2)CC3)c2scc(C(=O)O)c2n1 (stereo not drawn) [Compound 9] | < 100 | – | – | – | – | < 1000 | < 5000

Row | SMILES | IC50 [1] [nM] | IC50 [2, 4] [nM] | IC50 ([3]; Homo sapiens, COLO 205, 72 h) [nM] | IC50 [2, 5] [nM] | IC50 [3] [nM] | IC50 [2, 6] [nM] | IC50 ([3]; Homo sapiens) [nM]
20 | Cc1cc(-c2cc(Cl)ccc2OCCn2c(C)nc3c(c2=O)CC(N2CCN(C)CC2)CC3)c2scc(C(=O)O)c2n1 (stereo not drawn) [Compound 10] | < 100 | – | – | – | – | 1000 to 5000 | 5000 to 20000
21 | COC1CCN(C2CCc3nc(C)n(CCOc4ccc(Cl)cc4-c4cc(C)nc5c(C(=O)O)csc45)c(=O)c3C2)CC1 (stereo not drawn) [Compound 12] | < 100 | < 1000 | < 5000 | – | – | – | –
22 | CC(=O)N(C)C1CCc2nc(C)n(CCOc3ccc(Cl)cc3-c3cccc(C(=O)O)c3)c(=O)c2C1 (stereo not drawn) [Compound 15] | 500 to 5000 | > 5000 | > 20000 | – | – | – | –
23 | Cc1cc(-c2cc(Cl)ccc2OCCn2c(C)nc3c(c2=O)CC(N(C)Cc2ccncc2)CC3)c2scc(C(=O)O)c2n1 (stereo not drawn) [Compound 16] | < 100 | < 1000 | < 5000 | – | – | – | –
24 | Cc1cc(-c2cc(Cl)ccc2OCCn2c(C)nc3c(c2=O)CC(N2CC(N4CCOCC4)C2)CC3)c2scc(C(=O)O)c2n1 (stereo not drawn) [Compound 17] | < 100 | 1000 to 5000 | 5000 to 20000 | – | – | – | –
25 | Cc1cc(-c2cc(Cl)ccc2OCCn2c(C)nc3c(c2=O)CC(N2CC4COCC4C2)CC3)c2scc(C(=O)O)c2n1 (stereo not drawn) [Compound 19] | < 100 | < 1000 | < 5000 | – | – | – | –
26 | Cc1cc(-c2cc(Cl)ccc2OCCn2c(C)nc3c(c2=O)CC(N2CC4(COC4)C2)CC3)c2scc(C(=O)O)c2n1 (stereo not drawn) [Compound 20] | < 100 | < 1000 | < 5000 | – | – | – | –
27 | Cc1cc(-c2cc(Cl)ccc2OCCn2c(C)nc3c(c2=O)CC(N2CC4(CCN(C)C4)C2)CC3)c2scc(C(=O)O)c2n1 (stereo not drawn) [Compound 21] | < 100 | > 5000 | > 20000 | – | – | – | –
28 | Cc1cc(-c2cc(Cl)ccc2OCCn2c(C)nc3c(c2=O)CC(N2CC4(CCN(C)CC4)C2)CC3)c2scc(C(=O)O)c2n1 (stereo not drawn) [Compound 22] | < 100 | 1000 to 5000 | > 20000 | – | – | – | –
29 | Cc1cc(-c2cc(Cl)ccc2OCCn2c(C)nc3c(c2=O)CC(N2CC(C)(N(C)C)C2)CC3)c2scc(C(=O)O)c2n1 (stereo not drawn) [Compound 23] | < 100 | > 5000 | > 20000 | – | – | – | –
30 | Cc1cc(-c2cc(Cl)ccc2OCCn2c(C)nc3c(c2=O)CC(N2CCC4(COC4)C2)CC3)c2scc(C(=O)O)c2n1 (stereo not drawn) [Compound 26] | < 100 | < 1000 | < 5000 | – | – | – | –
31 | Cc1cc(-c2cc(Cl)ccc2OCCn2c(C)nc3c(c2=O)CC(N2CC4CN(C)CC4C2)CC3)c2scc(C(=O)O)c2n1 (stereo not drawn) [Compound 27] | < 100 | > 5000 | > 20000 | – | – | – | –
32 | COC1CN(C2CCc3nc(C)n(CCOc4ccc(Cl)cc4-c4cc(C)nc5c(C(=O)O)csc45)c(=O)c3C2)C1 (stereo not drawn) [Compound 28] | < 100 | < 1000 | < 5000 | – | – | – | –
33 | Cc1cc(-c2cc(Cl)ccc2OCCn2c(C)nc3c(c2=O)CC(N(C)CC2COC2)CC3)c2scc(C(=O)O)c2n1 (stereo not drawn) [Compound 29] | < 100 | < 1000 | < 5000 | – | – | – | –
34 | Cc1nc2c(c(=O)n1CCOc1ccc(Cl)cc1-c1ccnn3c(C(=O)O)ccc13)CC(N(C)C)CC2 (stereo not drawn) [Compound 30, 4-[5-chloranyl-2-[2-[6-[di(methyl)amino]-2-methyl-4-oxidanylidene-5,6,7,8-tetrahydroquinazolin-3-yl]ethoxy]phenyl]pyrrolo[1,2-b]pyridazine-7-carboxylic acid] | < 100 | 1000 to 5000 | > 20000 | – | – | – | –
35 | Cc1cc(-c2cc(Cl)ccc2OCCn2c(C)nc3c(c2=O)CC(N2CCC(F)(F)CC2)CC3)c2scc(C(=O)O)c2n1 (stereo not drawn) [Compound 32] | < 100 | < 1000 | < 5000 | – | – | – | –
36 | COCCN(C)C1CCc2nc(C)n(CCOc3ccc(Cl)cc3-c3cc(C)nc4c(C(=O)O)csc34)c(=O)c2C1 (stereo not drawn) [Compound 33] | < 100 | < 1000 | < 5000 | – | – | – | –
37 | Cc1cc(-c2cc(Cl)ccc2OCCn2c(C)nc3c(c2=O)CC(N2CCC4(CN(C)C4)C2)CC3)c2scc(C(=O)O)c2n1 (stereo not drawn) [Compound 34] | < 100 | > 5000 | > 20000 | – | – | – | –
38 | Cc1cc(-c2cc(Cl)ccc2OCCn2c(C)nc3c(c2=O)CC(N2CC4(CN(C)C4)C2)CC3)c2scc(C(=O)O)c2n1 (stereo not drawn) [Compound 35] | < 100 | > 5000 | > 20000 | – | – | – | –
